{
  "source": "patent US20260217701A1",
  "about": "“SELECTIVE BET INHIBITORS AND USES THEREOF” (Tay Therapeutics Limited, priority 2022, published 2026)",
  "tested_on": "imiquimod-induced psoriasis",
  "test": "Imiquimod-induced psoriasis model",
  "type": "in vivo, mice",
  "settings": "for Mean scores of the presence of peeling on the skin of animals at the area of induction of psoriasis / Mean scores of the presence of erythema on the skin of animals at the area of induction of psoriasis / Mean scores of the presence of induration on the skin of animals at the area of induction of psoriasis: mean ± SEM; for Mean PASI Scores in IMI-Psoriasis Model: mice",
  "outline": "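Psoriasis-like dermatitis induced in mice by daily dorsal imiquimod cream (Days 1–14); dosing with Compound A (5% DMSO/40% PEG-400/55% saline vehicle) began Day 8. Read-outs: summed 0–4 scores for erythema, induration and peeling daily to Day 15, plus terminal spleen ratio, behaviour and serum cytokines.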",
  "key": {"[1]": {"settings": "IMI + 10 mg/kg, D8 (before start of treatment)"}},
  "data": [
    {"smiles": "COCCn1cc(-c2ccccc2)c(-c2cn(C)c(=O)c3[nH]c(-c4cnn(C(F)(F)F)c4)cc23)cc1=O", "note": "[Compound B, 4-(1-(2-methoxyethyl)-2-oxo-5-phenyl-1,2-dihydropyridin-4-yl)-6-methyl-2-(1-(trifluoromethyl)-1H-pyrazol-4-yl)-1,6-dihydro-7H-pyrrolo[2,3-c]pyridin-7-one]", "values": [
      {"measurement": "Mean scores of the presence of peeling on the skin of animals at the area of induction of psoriasis", "setting": "IMI + 3 mg/kg, D15", "result": "1.3 ± 0.3"},
      {"measurement": "Mean scores of the presence of erythema on the skin of animals at the area of induction of psoriasis", "setting": "[1]", "result": "2.1 ± 0.1"},
      {"measurement": "Mean scores of the presence of induration on the skin of animals at the area of induction of psoriasis", "setting": "[1]", "result": "2.8 ± 0.2"},
      {"measurement": "Mean scores of the presence of peeling on the skin of animals at the area of induction of psoriasis", "setting": "[1]", "result": "2.4 ± 0.3"},
      {"measurement": "Mean scores of the presence of erythema on the skin of animals at the area of induction of psoriasis", "setting": "IMI + 10 mg/kg, D9", "result": "1.5 ± 0.2"},
      {"measurement": "Mean scores of the presence of induration on the skin of animals at the area of induction of psoriasis", "setting": "IMI + 10 mg/kg, D9", "result": "2.0 ± 0.2"},
      {"measurement": "Mean scores of the presence of peeling on the skin of animals at the area of induction of psoriasis", "setting": "IMI + 10 mg/kg, D9", "result": "2.1 ± 0.2"},
      {"measurement": "Mean scores of the presence of erythema on the skin of animals at the area of induction of psoriasis", "setting": "IMI + 10 mg/kg, D10", "result": "1.8 ± 0.2"},
      {"measurement": "Mean scores of the presence of induration on the skin of animals at the area of induction of psoriasis", "setting": "IMI + 10 mg/kg, D10", "result": "2.1 ± 0.2"},
      {"measurement": "Mean scores of the presence of peeling on the skin of animals at the area of induction of psoriasis", "setting": "IMI + 10 mg/kg, D10", "result": "2.0 ± 0.3"},
      {"measurement": "Mean scores of the presence of erythema on the skin of animals at the area of induction of psoriasis", "setting": "IMI + 10 mg/kg, D11", "result": "1.5 ± 0.2"},
      {"measurement": "Mean scores of the presence of induration on the skin of animals at the area of induction of psoriasis", "setting": "IMI + 10 mg/kg, D11", "result": "1.5 ± 0.2"},
      {"measurement": "Mean scores of the presence of peeling on the skin of animals at the area of induction of psoriasis", "setting": "IMI + 10 mg/kg, D11", "result": "1.9 ± 0.1"},
      {"measurement": "Mean scores of the presence of erythema on the skin of animals at the area of induction of psoriasis", "setting": "IMI + 10 mg/kg, D12", "result": "0.9 ± 0.3"},
      {"measurement": "Mean scores of the presence of induration on the skin of animals at the area of induction of psoriasis", "setting": "IMI + 10 mg/kg, D12", "result": "1.1 ± 0.1"},
      {"measurement": "Mean scores of the presence of peeling on the skin of animals at the area of induction of psoriasis", "setting": "IMI + 10 mg/kg, D12", "result": "1.0 ± 0.2"},
      {"measurement": "Mean scores of the presence of erythema on the skin of animals at the area of induction of psoriasis", "setting": "IMI + 10 mg/kg, D13", "result": "0.6 ± 0.3"},
      {"measurement": "Mean scores of the presence of induration on the skin of animals at the area of induction of psoriasis", "setting": "IMI + 10 mg/kg, D13", "result": "1.0 ± 0.0"},
      {"measurement": "Mean scores of the presence of peeling on the skin of animals at the area of induction of psoriasis", "setting": "IMI + 10 mg/kg, D13", "result": "0.4 ± 0.2"},
      {"measurement": "Mean scores of the presence of erythema on the skin of animals at the area of induction of psoriasis", "setting": "IMI + 10 mg/kg, D14", "result": "0.1 ± 0.1"},
      {"measurement": "Mean scores of the presence of induration on the skin of animals at the area of induction of psoriasis", "setting": "IMI + 10 mg/kg, D14", "result": "0.6 ± 0.2"},
      {"measurement": "Mean scores of the presence of peeling on the skin of animals at the area of induction of psoriasis", "setting": "IMI + 10 mg/kg, D14", "result": "0.5 ± 0.2"},
      {"measurement": "Mean scores of the presence of erythema on the skin of animals at the area of induction of psoriasis", "setting": "IMI + 10 mg/kg, D15", "result": "0.1 ± 0.1"},
      {"measurement": "Mean scores of the presence of induration on the skin of animals at the area of induction of psoriasis", "setting": "IMI + 10 mg/kg, D15", "result": "0.4 ± 0.2"},
      {"measurement": "Mean scores of the presence of peeling on the skin of animals at the area of induction of psoriasis", "setting": "IMI + 10 mg/kg, D15", "result": "0.4 ± 0.2"},
      {"measurement": "Mean PASI Scores in IMI-Psoriasis Model", "setting": "IMI + 1 mg/kg, D8 (before start of treatment)", "result": "7.0 ± 0.3"},
      {"measurement": "Mean PASI Scores in IMI-Psoriasis Model", "setting": "IMI + 1 mg/kg, D9", "result": "6.8 ± 0.6"},
      {"measurement": "Mean PASI Scores in IMI-Psoriasis Model", "setting": "IMI + 1 mg/kg, D10", "result": "6.0 ± 0.3"},
      {"measurement": "Mean PASI Scores in IMI-Psoriasis Model", "setting": "IMI + 1 mg/kg, D11", "result": "6.5 ± 0.5"},
      {"measurement": "Mean PASI Scores in IMI-Psoriasis Model", "setting": "IMI + 1 mg/kg, D12", "result": "5.6 ± 0.3"},
      {"measurement": "Mean PASI Scores in IMI-Psoriasis Model", "setting": "IMI + 1 mg/kg, D13", "result": "5.6 ± 0.5"},
      {"measurement": "Mean PASI Scores in IMI-Psoriasis Model", "setting": "IMI + 1 mg/kg, D14", "result": "5.6 ± 0.4"},
      {"measurement": "Mean PASI Scores in IMI-Psoriasis Model", "setting": "IMI + 1 mg/kg, D15", "result": "5.1 ± 0.4"},
      {"measurement": "Mean PASI Scores in IMI-Psoriasis Model", "setting": "IMI + 3 mg/kg, D8 (before start of treatment)", "result": "7.4 ± 0.3"},
      {"measurement": "Mean PASI Scores in IMI-Psoriasis Model", "setting": "IMI + 3 mg/kg, D9", "result": "6.0 ± 0.4"},
      {"measurement": "Mean PASI Scores in IMI-Psoriasis Model", "setting": "IMI + 3 mg/kg, D10", "result": "5.8 ± 0.4"},
      {"measurement": "Mean PASI Scores in IMI-Psoriasis Model", "setting": "IMI + 3 mg/kg, D11", "result": "5.4 ± 0.3"},
      {"measurement": "Mean PASI Scores in IMI-Psoriasis Model", "setting": "IMI + 3 mg/kg, D12", "result": "5.4 ± 0.3"},
      {"measurement": "Mean PASI Scores in IMI-Psoriasis Model", "setting": "IMI + 3 mg/kg, D13", "result": "5.0 ± 0.4"},
      {"measurement": "Mean PASI Scores in IMI-Psoriasis Model", "setting": "IMI + 3 mg/kg, D14", "result": "4.6 ± 0.4"},
      {"measurement": "Mean PASI Scores in IMI-Psoriasis Model", "setting": "IMI + 3 mg/kg, D15", "result": "3.5 ± 0.5"},
      {"measurement": "Mean PASI Scores in IMI-Psoriasis Model", "setting": "[1]", "result": "7.3 ± 0.4"},
      {"measurement": "Mean PASI Scores in IMI-Psoriasis Model", "setting": "IMI + 10 mg/kg, D9", "result": "5.6 ± 0.4"},
      {"measurement": "Mean PASI Scores in IMI-Psoriasis Model", "setting": "IMI + 10 mg/kg, D10", "result": "5.9 ± 0.5"},
      {"measurement": "Mean PASI Scores in IMI-Psoriasis Model", "setting": "IMI + 10 mg/kg, D11", "result": "4.9 ± 0.3"},
      {"measurement": "Mean PASI Scores in IMI-Psoriasis Model", "setting": "IMI + 10 mg/kg, D12", "result": "3.1 ± 0.5"},
      {"measurement": "Mean PASI Scores in IMI-Psoriasis Model", "setting": "IMI + 10 mg/kg, D13", "result": "2.0 ± 0.4"},
      {"measurement": "Mean PASI Scores in IMI-Psoriasis Model", "setting": "IMI + 10 mg/kg, D14", "result": "1.3 ± 0.3"},
      {"measurement": "Mean PASI Scores in IMI-Psoriasis Model", "setting": "IMI + 10 mg/kg, D15", "result": "0.9 ± 0.4"},
      {"measurement": "erythema, induration and peeling of the skin at the area of induction", "setting": "mouse, in vivo", "result": "significantly reduced"},
      {"measurement": "use of enrichment (nesting)", "setting": "relative to vehicle-treated psoriasis animals", "result": "similarly restored use of nesting"}
    ]}
  ]
}
